Laboratory results published in US6461997B1, “Triazole sulfones having herbicidal activity” (Monsanto Technology LLC, priority 1999, dated 2002).

Legend:
SINAR (wild mustard) = test: Pre-emergence herbicidal activity, cool season; assay type: in vivo, Sinapis arvensis; conditions: lowest tested rate with 80% or greater inhibition; rates 300, 100, 30, 10 g/ha; about 14 days
In short: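 Seeds sown in sterilised fertilised topsoil received surface-applied compound in 50:50 acetone/water, typically at 300, 100, 30 and 10 g/ha, then greenhouse-grown at 30/21° C (warm-season species) or 18/13° C (cool-season species). Percent inhibition versus untreated plants was scored at about 14 days, giving GR80; an asterisk marks activity short of 80% at the top rate.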

ALOMY (blackgrass) = test: Pre-emergence herbicidal activity, cool season; assay type: in vivo, Alopecurus myosuroides; conditions: GR80 = lowest tested rate (300, 100, 30, 10 g/ha) with 80% or greater inhibition; approx. 14 days after treating; 18/13° C.
In short: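 Each pot received seeds on sterilized fertilized topsoil, a soil cover, and a surface spray of compound (300–10 g/ha, acetone/water 50:50). Plants grew about 14 days at 30/21 °C (PANMI, DIGSA) or 18/13 °C (ALOMY, POLCO) before inhibition was rated against untreated pots to give GR80.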

ABUTH (velvetleaf) = test: Pre-plant incorporated (PPI) herbicidal activity, warm season; assay type: in vivo, Abutilon theophrasti; conditions: for PPI activity (GR80) ABUTH: pre-plant incorporated, GR80 = lowest tested rate with 80% or greater inhibition, approx. 14 days after treating, 30/21° C.
Procedure: (§1) In another set of tests, the pre-plant incorporated (PPI) activity of compounds of this invention was evaluated on the same species as for the pre-emergence tests described above. In the PPI tests the following procedure, designed to simulate PPI application, was used.
(§2) A pre-prepared topsoil mixture (described above) was placed in a pot and compacted to a depth of 1.0 to 1.25 cm from the top of the pot. Seeds of each of several monocotyledonous and dicotyledonous annual plant species were placed on top of the soil. A sufficient quantity of soil to cover the seeds and level fill the pot was weighed into an open container. A known amount of the test compound was dissolved or suspended in an organic solvent and applied by spraying to this cover soil. The cover soil was thoroughly mixed to distribute the test compound throughout the cover soil, and was then applied as a cover layer over the seeds. Untreated soil was used as a cover layer for control pots. After treatment the plants were placed in a greenhouse where they received 0.64 cm of overhead irrigation. All subsequent watering consisted of a light overhead mist and/or subirrigation as needed for germination and growth. Tables 9 and 10 below relate to warm season plant species which were placed after pre-emergence treatment in a greenhouse with a 30/21° C. day/night temperature regime. Tables 11 and 12 below relates to cool season plant species placed after pre-emergence treatment in a greenhouse or growth chamber with an 18/13° C. day/night temperature regime. Only the compounds of Examples 1, 6, 8, 11, 13 and 15-20 were included in PPI tests.
(§3) Approximately 14 days after planting and treating, the plants were observed and herbicidal efficacy recorded as percent inhibition by comparison with untreated plants.

SETFA (giant foxtail) = test: as above; assay type: in vivo, Setaria faberi; conditions: for PPI activity GR80, SETFA: pre-plant incorporated, lowest tested rate with 80% or greater inhibition, about 14 days
Procedure: as §1, §2, §3

soybean (GLYMX) = test: Selectivity test, PPI, warm season crop; assay type: in vivo, Glycine max; conditions: PPI application
Procedure: as §2, §3
Additional pre-emergence and PPI tests were conducted by the procedures described above, on warm and cool season weed species in the presence of crop species, to assess herbicidal selectivity. Crop species included in warm season tests were corn (Zea mays, ZEAMX), rice (Oryza sativa, ORYSA) and soybean (Glycine max, GLYMX). Crop species included in cool season tests were wheat (Triticum aestivum, TRZAW), barley (Hordeunm vulgare, HORVX) and oilseed rape (Brassica napus, BRSNS).
Tables 15 and 16 relate to pre-emergence and PPI tests respectively on warm season species. Table 17 relates to pre-emergence tests on cool season species.

[1] = test system: AEGCY (jointed goatgrass); test: Post-emergence herbicidal activity, cool season; assay type: in vivo, Aegilops cylindrica; conditions: abraded plants sprayed at 300, 100, 30 and 10 g/ha; about 14 days after treatment
Procedure: In another set of tests, the post-emergence activity of compounds of this invention was evaluated on the cool season species listed above. The following procedure was used.
A pre-prepared topsoil mixture (described above) was placed in a pot and compacted to a depth of 1.0 to 1.25 cm from the top of the pot. Seeds of each of several monocotyledonous and dicotyledonous annual plant species were placed on top of the soil. The seeds were covered with a mixture of 50% topsoil and 50% Rediearth™ in sufficient quantity to level-fill the pots. The pots were then placed on a greenhouse bench and subirrigated as needed.
When plants growing from the seeds had emerged and reached a suitable growth stage for post-emergence treatment, typically 9 to 14 days after planting, above-ground parts of the plants were subjected to a pre-treatment involving abrasion to create greater opportunity for foliar uptake of subsequently applied compounds. Abrasion was performed using garnet 200w particles applied with a Sears Craftsman hand-held sandblaster operated at approximately 850 kPa (50 psig) pressure.
A known amount of each test compound dissolved or suspended in an appropriate organic solvent was diluted with a 50:50 mix of acetone and water and applied to the plants by spraying with a standard spray nozzle in a spray volume of […] at a spray pressure of 511 kPa (30 psig). Only the compounds of Examples 1, 8-15 and 17-22 were included in post-emergence tests. Application rates for these compounds were 300, 100, 30 and 10 g/ha. Control plants were abraded but not sprayed.
After treatment the plants were placed in a greenhouse with an 18/13° C. day/night temperature regime and were subsequently watered as needed for growth. Approximately 14 days after treatment, the plants were observed and herbicidal efficacy recorded as percent inhibition by comparison with control plants. GR80 values were assigned for each compound as described above for the pre-emergence tests.

| SMILES | Pre-emergence activity GR80, SINAR (SINAR (wild mustard)) | Pre-emergence activity (GR80) ALOMY (ALOMY (blackgrass)) | Percent inhibition ABUTH (ABUTH (velvetleaf); PPI application, 30 g/ha) | Percent inhibition ABUTH (ABUTH (velvetleaf); PPI application, 100 g/ha) | Percent inhibition ABUTH (ABUTH (velvetleaf); PPI application, 300 g/ha) | Percent inhibition ABUTH (ABUTH (velvetleaf); PPI application, 900 g/ha) | Percent inhibition SETFA (SETFA (giant foxtail); PPI application, 30 g/ha) | Percent inhibition SETFA (SETFA (giant foxtail); PPI application, 100 g/ha) | Percent inhibition SETFA (SETFA (giant foxtail); PPI application, 300 g/ha) | Percent inhibition SETFA (SETFA (giant foxtail); PPI application, 900 g/ha) | Percent inhibition GLYMX (soybean (GLYMX); 30 g/ha) | Percent inhibition GLYMX (soybean (GLYMX); 100 g/ha) | Percent inhibition GLYMX (soybean (GLYMX); 300 g/ha) | Percent inhibition GLYMX (soybean (GLYMX); 900 g/ha) | PPI activity GR80, SETFA (SETFA (giant foxtail)) | also measured |
| --- | --- | --- | --- | --- | --- | --- | --- | --- | --- | --- | --- | --- | --- | --- | --- | --- |
| CCN(CC)C(=O)n1cnc(S(=O)(=O)C(F)(F)F)n1 [Example 2] | 30 g/ha | 100 g/ha | 0% | 0% | 20% | 75% | 20% | 100% | 100% | 90% | 0% | 0% | 10% | 20% | – | – |
| CCN(CC)C(=O)n1cnc(S(=O)(=O)C(F)(F)Cl)n1 [Example 3] | 300 g/ha | 100 g/ha | 0% | 0% | 30% | 60% | 100% | 100% | 100% | 100% | 0% | 0% | 0% | 15% | – | – |
| CCN(CC)C(=O)n1cnc(S(=O)(=O)C(F)(F)C(F)(F)Br)n1 [Example 4] | 30 g/ha | 300 g/ha | 0% | 0% | 20% | 70% | 100% | 100% | 100% | 100% | 0% | 0% | 0% | 10% | – | – |
| CCN(CC)C(=O)n1cnc(S(=O)(=O)C(F)(F)C(=O)c2ccccc2)n1 [Example 6] | 300 g/ha | 100 g/ha | – | – | – | – | – | – | – | – | – | – | – | – | 100 g/ha | – |
| CCN(CC)C(=O)n1cnc(S(=O)(=O)C(F)(F)C(F)(F)SC)n1 [Example 14] | [empty] | 100 g/ha | – | – | – | – | – | – | – | – | – | – | – | – | – | Post-emergence activity GR80, AEGCY [1]: [empty] |
| CCN(CC)C(=O)n1cnc(S(=O)(=O)C(F)F)n1 [Example 15, 1-(N,N-diethylcarbamoyl)-3-(difluoromethylsulfonyl)-1,2,4-triazole] | – | – | – | – | – | – | – | – | – | – | – | – | – | – | 30 g/ha | inhibition at 10 g/ha (ABUTH (velvetleaf); Abutilon theophrasti, PPI application, 10 g/ha, read-out: Percent inhibition ABUTH): 0%; inhibition at 30 g/ha (ABUTH (velvetleaf); Abutilon theophrasti, PPI application, 30 g/ha, read-out: Percent inhibition ABUTH): 0%; inhibition at 100 g/ha (ABUTH (velvetleaf); Abutilon theophrasti, PPI application, 100 g/ha, read-out: Percent inhibition ABUTH): 20%; inhibition at 300 g/ha (ABUTH (velvetleaf); Abutilon theophrasti, PPI application, 300 g/ha, read-out: Percent inhibition ABUTH): 50%; inhibition at 900 g/ha (ABUTH (velvetleaf); Abutilon theophrasti, PPI application, 900 g/ha, read-out: Percent inhibition ABUTH): 40%; PPI activity (GR80) ABUTH (ABUTH (velvetleaf)): 100 g/ha; inhibition at 30 g/ha (SETFA (giant foxtail); Setaria faberi, PPI application, 30 g/ha, read-out: Percent inhibition SETFA): 40%; inhibition at 100 g/ha (SETFA (giant foxtail); Setaria faberi, PPI application, 100 g/ha, read-out: Percent inhibition SETFA): 99%; inhibition at 300 g/ha (SETFA (giant foxtail); Setaria faberi, PPI application, 300 g/ha, read-out: Percent inhibition SETFA): 100%; inhibition at 900 g/ha (SETFA (giant foxtail); Setaria faberi, PPI application, 900 g/ha, read-out: Percent inhibition SETFA): 100%; Post-emergence activity GR80, AEGCY [1]: [empty]; inhibition at 10 g/ha (soybean (GLYMX); Glycine max, 10 g/ha, read-out: Percent inhibition GLYMX): 0%; inhibition at 30 g/ha (soybean (GLYMX); Glycine max, 30 g/ha, read-out: Percent inhibition GLYMX): 0%; inhibition at 100 g/ha (soybean (GLYMX); Glycine max, 100 g/ha, read-out: Percent inhibition GLYMX): 0%; inhibition at 300 g/ha (soybean (GLYMX); Glycine max, 300 g/ha, read-out: Percent inhibition GLYMX): 15%; inhibition at 900 g/ha (soybean (GLYMX); Glycine max, 900 g/ha, read-out: Percent inhibition GLYMX): 65% |
| CCN(CC)C(=O)n1cnc(S(=O)(=O)C(F)(F)C(F)F)n1 [Example 16] | 100 g/ha | 100 g/ha | 0% | 0% | 30% | 95% | 80% | 100% | 100% | 100% | 0% | 10% | 10% | 80% | 10 g/ha | Percent inhibition ABUTH (ABUTH (velvetleaf); PPI application, 10 g/ha): 0%; PPI activity (GR80) ABUTH (ABUTH (velvetleaf)): 100 g/ha; Percent inhibition SETFA (SETFA (giant foxtail); PPI application, 10 g/ha): 80%; Percent inhibition GLYMX (soybean (GLYMX); 10 g/ha): 0% |
